These are literature values, as cited in patent US20260232602A1, “DRUG DELIVERY SYSTEMS AND METHODS COMPRISING POLYSIALIC ACID AND/OR OTHER POLYMERS” (Universidade de Santiago de Compostela, priority 2017, published 2026).

Molecules are shown by their SMILES.

For the data set the following is noted: stated with the drug's Mw and supplier.

For `CC(=O)O[C@@]12CO[C@@H]1C[C@H](O)[C@@]1(C)C(=O)[C@H](O)C3=C(C)[C@@H](OC(=O)[C@H](O)[C@@H](NC(=O)OC(C)(C)C)c4ccccc4)C[C@@](O)([C@@H](OC(=O)c4ccccc4)[C@H]21)C3(C)C` [docetaxel], the “Log P” value is reported as 2.6.
On to `C/C(=C\c1csc(C)n1)[C@@H]1C[C@@H]2O[C@]2(C)CCC[C@H](C)[C@H](O)[C@@H](C)C(=O)C(C)(C)[C@@H](O)CC(=O)O1` [patupilone], for which the “Log P” value is 3.7.
